Assay results from PubChem BioAssay AID330 (DTP/NCI, 2004).
“And” between values parts separate entries of the source, which are not always exact repeats. Equal values may be shown once. Toxic doses and inconclusive results are not listed. How the source made its calls: active means survival T/C of 150% or more; inactive means T/C below 125% in these data.

Tested on: P388 leukemia ip, CD2F1 mice, survival T/C
Assay: NCI In Vivo Anticancer Drug Screen. Data for tumor model P388 Leukemia (intraperitoneal) in CD2F1 (CDF1) mice
Conditions: endpoint: median survival time, higher = longer survival
Summary of the method: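 Mice carrying the transplanted tumor received test compound or vehicle. Survival was recorded in each group, and the value is the treated-group measurement divided by that of the vehicle-treated control group.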

[1] = dose: 60.0 mg/kg/injection, schedule: Q01DX005 (ip), vehicle: saline with Tween-80
[2] = dose: 120.0 mg/kg/injection, schedule: Q01DX005 (ip), vehicle: saline with Tween-80
[3] = dose: 240.0 mg/kg/injection, schedule: Q01DX005 (ip), vehicle: saline with Tween-80
[4] = dose: 50.0 mg/kg/injection, schedule: Q01DX009 (ip), vehicle: saline
[5] = dose: 50.0 mg/kg/injection, schedule: Q01DX005 (ip), vehicle: saline with Tween-80
[6] = dose: 100.0 mg/kg/injection, schedule: Q01DX005 (ip), vehicle: saline with Tween-80
[7] = dose: 12.5 mg/kg/injection, schedule: Q01DX005 (ip), vehicle: saline with Tween-80
[8] = dose: 25.0 mg/kg/injection, schedule: Q01DX005 (ip), vehicle: saline with Tween-80

Measured: T/C

Cc1cc2oc3c(c2c(=O)[nH]1)C(=O)c1ccccc1C3=O
inactive: [1] 100 % of control | [2] 94 % of control | [3] 91 % of control

Cc1ccc(S(=O)(=O)c2c(O)c3ccccc3c3nc4ccccc4nc23)cc1
inactive: dose: 12.5 mg/kg/injection, schedule: Q01DX009 (ip), vehicle: saline 90 % of control | dose: 12.5 mg/kg/injection, schedule: Q01DX009 (ip), vehicle: suspension in saline 88 % of control | dose: 25.0 mg/kg/injection, schedule: Q01DX009 (ip), vehicle: suspension in saline 90 % of control | [4] 89 % of control | dose: 50.0 mg/kg/injection, schedule: Q01DX009 (ip), vehicle: suspension in saline 88 % of control | dose: 200.0 mg/kg/injection, schedule: Q01DX009 (ip), vehicle: saline 91 % of control

O=C(c1cc(Nc2ccnc3cc(Cl)ccc23)ccc1O)N1CCC(O)(c2ccccc2)CC1
inactive: [5] 102 % of control | [6] 108 % of control | dose: 200.0 mg/kg/injection, schedule: Q01DX005 (ip), vehicle: saline with Tween-80 109 % of control

CSc1nnc(C2CCC(=O)N2Cc2ccccc2)o1 (configuration not stated)
inactive: dose: 60.0 mg/kg/injection, schedule: Q01DX005 (ip), vehicle: saline 105 % of control | dose: 120.0 mg/kg/injection, schedule: Q01DX005 (ip), vehicle: saline 102 % of control | dose: 240.0 mg/kg/injection, schedule: Q01DX005 (ip), vehicle: saline 104 % of control

ClCSCc1ccccc1
inactive: dose: 12.5 mg/kg/injection, schedule: Q01DX009 (ip), vehicle: other 110 % of control | dose: 25.0 mg/kg/injection, schedule: Q01DX009 (ip), vehicle: other 110 % of control | dose: 50.0 mg/kg/injection, schedule: Q01DX009 (ip), vehicle: other 110 % of control

COc1cc2c(cc1OC)C1CC(CC3CCCCN31)OC(=O)/C=C\c1ccc(O)c-2c1 (configuration not stated)
inactive: dose: 25.0 mg/kg/injection, schedule: Q04DX003 (ip), vehicle: saline 105 % of control | dose: 50.0 mg/kg/injection, schedule: Q04DX003 (ip), vehicle: saline 111 % of control | dose: 100.0 mg/kg/injection, schedule: Q04DX003 (ip), vehicle: saline 102 % of control and 86 % of control

[C-]#[N+]C1(c2ccccc2)C2CC3CC(C2)CC1C3 (configuration not stated)
inactive: dose: 100.0 mg/kg/injection, schedule: Q04DX003 (ip), vehicle: Klucel (hydroxypropylcellulose) (HPC) 106 % of control | dose: 200.0 mg/kg/injection, schedule: Q04DX003 (ip), vehicle: Klucel (hydroxypropylcellulose) (HPC) 100 % of control | dose: 400.0 mg/kg/injection, schedule: Q04DX003 (ip), vehicle: Klucel (hydroxypropylcellulose) (HPC) 106 % of control

CCOC(=O)C1=C(C)/C(=C/c2[n-]c(Cl)c(C)c2C(=O)OCC)N=C1C.CCOC(=O)C1=C(C)/C(=C/c2[n-]c(Cl)c(C)c2C(=O)OCC)N=C1C.[Co+3]
inactive: dose: 50.0 mg/kg/injection, schedule: Q01DX005 (ip), vehicle: Klucel (hydroxypropylcellulose) (HPC) 88 % of control | dose: 100.0 mg/kg/injection, schedule: Q01DX005 (ip), vehicle: Klucel (hydroxypropylcellulose) (HPC) 98 % of control | dose: 200.0 mg/kg/injection, schedule: Q01DX005 (ip), vehicle: Klucel (hydroxypropylcellulose) (HPC) 108 % of control

CC(C)Oc1ccc(C(=O)NS(=O)(=O)c2ccc(N=CC3C(=O)N(c4ccccc4)N(c4ccccc4)C3=O)cc2)cc1
inactive: dose: 100.0 mg/kg/injection, schedule: Q01DX009 (ip), vehicle: Klucel (hydroxypropylcellulose) (HPC) 92 % of control | dose: 200.0 mg/kg/injection, schedule: Q01DX009 (ip), vehicle: Klucel (hydroxypropylcellulose) (HPC) 86 % of control

COc1ccc(-[n+]2noc(N)n2)cc1
inactive: dose: 3.13 mg/kg/injection, schedule: Q01DX009 (ip), vehicle: water 99 % of control | dose: 6.25 mg/kg/injection, schedule: Q01DX009 (ip), vehicle: water 102 % of control | dose: 12.5 mg/kg/injection, schedule: Q01DX009 (ip), vehicle: water 108 % of control | dose: 25.0 mg/kg/injection, schedule: Q01DX009 (ip), vehicle: water 116 % of control | dose: 50.0 mg/kg/injection, schedule: Q01DX009 (ip), vehicle: water 120 % of control

CCOC(=O)C(=O)C1Cc2ccc3ccc(OC)cc3c2C1=O (configuration not stated)
inactive: dose: 12.5 mg/kg/injection, schedule: Q01DX009 (ip), vehicle: distilled water + Tween-80 109 % of control | dose: 25.0 mg/kg/injection, schedule: Q01DX009 (ip), vehicle: distilled water + Tween-80 112 % of control | dose: 50.0 mg/kg/injection, schedule: Q01DX009 (ip), vehicle: distilled water + Tween-80 102 % of control | dose: 100.0 mg/kg/injection, schedule: Q01DX009 (ip), vehicle: distilled water + Tween-80 94 % of control | dose: 200.0 mg/kg/injection, schedule: Q01DX009 (ip), vehicle: distilled water + Tween-80 102 % of control

COC(=O)C1c2cc3c(c(O)c2C(OC2OC(C)C(OC)C(C)(OC)C2OC)CC1(C)O)C(=O)c1c(O)cc2c(c1C3=O)OC1OC2(C)C(O)C(N(C)C=O)C1O (configuration not stated)
inactive: dose: 1.56 mg/kg/injection, schedule: Q04DX003 (ip), vehicle: other 100 % of control | dose: 3.12 mg/kg/injection, schedule: Q04DX003 (ip), vehicle: other 96 % of control | dose: 6.25 mg/kg/injection, schedule: Q04DX003 (ip), vehicle: other 100 % of control | dose: 12.5 mg/kg/injection, schedule: Q04DX003 (ip), vehicle: other 110 % of control | dose: 25.0 mg/kg/injection, schedule: Q04DX003 (ip), vehicle: other 112 % of control

CN(C)C(=S)n1c(=S)nc(N(C)C)sc1=S
inactive: [7] 103 % of control | [8] 108 % of control | [5] 108 % of control and 113 % of control | [6] 109 % of control

O=[N+]([O-])c1cccc(-c2ccccc2)c1Br
inactive: dose: 37.5 mg/kg/injection, schedule: Q04DX003 (ip), vehicle: saline with Tween-80 100 % of control | dose: 75.0 mg/kg/injection, schedule: Q04DX003 (ip), vehicle: saline with Tween-80 100 % of control | dose: 150.0 mg/kg/injection, schedule: Q04DX003 (ip), vehicle: saline with Tween-80 100 % of control

CCCCCCCCCC(=O)CCCCC
inactive: dose: 100.0 mg/kg/injection, schedule: Q01DX009 (ip), vehicle: other 115 % of control | dose: 200.0 mg/kg/injection, schedule: Q01DX009 (ip), vehicle: other 115 % of control | dose: 400.0 mg/kg/injection, schedule: Q01DX009 (ip), vehicle: other 90 % of control

CCCCNP1(NCCCC)=NP(NCCCC)(NCCCC)=NP(NCCCC)(NCCCC)=NP(NCCCC)(NCCCC)=N1
inactive: [7] 106 % of control | [8] 116 % of control | [6] 88 % of control

Cn1c(-c2ccccc2)nc(-c2ccccc2)[n+]1[O-]
inactive: dose: 60.0 mg/kg/injection, schedule: Q01DX005 (ip), vehicle: Klucel (hydroxypropylcellulose) (HPC) 102 % of control | dose: 120.0 mg/kg/injection, schedule: Q01DX005 (ip), vehicle: Klucel (hydroxypropylcellulose) (HPC) 96 % of control | dose: 240.0 mg/kg/injection, schedule: Q01DX005 (ip), vehicle: Klucel (hydroxypropylcellulose) (HPC) 95 % of control

N=C(N=C(C(Cl)(Cl)Cl)C(Cl)(Cl)Cl)N=C(C(Cl)(Cl)Cl)C(Cl)(Cl)Cl
inactive: [1] 100 % of control | [2] 99 % of control | [3] 104 % of control

c1ccc2c(c1)Nc1ccncc1S2
inactive: dose: 100.0 mg/kg/injection, schedule: Q01DX009 (ip), vehicle: saline with Tween-80 100 % of control | dose: 100.0 mg/kg/injection, schedule: Q04DX003 (ip), vehicle: saline with Tween-80 100 % of control | dose: 200.0 mg/kg/injection, schedule: Q01DX009 (ip), vehicle: saline with Tween-80 100 % of control | dose: 200.0 mg/kg/injection, schedule: Q04DX003 (ip), vehicle: saline with Tween-80 100 % of control | dose: 400.0 mg/kg/injection, schedule: Q01DX009 (ip), vehicle: saline with Tween-80 100 % of control

CCN(CC)c1ccc([P+](=O)O)cc1
inactive: [4] 108 % of control | dose: 100.0 mg/kg/injection, schedule: Q01DX009 (ip), vehicle: saline 100 % of control

Cc1oc(C)c(-c2ccccc2)c1C(=O)N1CCN(C)CC1
inactive: [1] 98 % of control | [2] 98 % of control

CCCCCCCCCCC[N+]1(CC)CCCC1
inactive: dose: 0.19 mg/kg/injection, schedule: Q01DX009 (ip), vehicle: saline 103 % of control | dose: 0.39 mg/kg/injection, schedule: Q01DX009 (ip), vehicle: saline 98 % of control and 109 % of control | dose: 0.78 mg/kg/injection, schedule: Q01DX009 (ip), vehicle: saline 98 % of control and 104 % of control and 115 % of control | dose: 1.56 mg/kg/injection, schedule: Q01DX009 (ip), vehicle: saline 99 % of control | dose: 3.12 mg/kg/injection, schedule: Q01DX009 (ip), vehicle: saline 111 % of control
